Test results reported in US20200000793A1, “TOPICAL FORMULATIONS OF TARGETED NITROXIDE AGENTS” (University of Pittsburgh - Of the Commonwealth System of …, priority 2011, published 2020).

Legend:
[1] = In vivo topical delivery in lipid-based formulation, amount retained in tape-stripped skin; settings: 2 mg/ml in saline with surfactants and egg PC, liposome size 200 nm; tape-stripped skin of topically treated mice
Protocol: For these studies, 2 mg/ml JP4-039 was formulated in saline with a mixture of surfactants with egg PC by sonication to a liposome size of 200 nm. Harvested, tape-stripped (to remove superficial drug) skin from topically treated mice was processed as described above to determine the amount of JP4-039 retained in the skin. We found cutaneous retention to be in the range of 11.7+/−3.1 pmole/mg, a level compatible with therapeutic efficacy.

[2] = test system: oxidative stress induced skin damage; assay: Mice irradiated with 35 GY, JP4-039 at 0.5, 24 and 48 hours: barrier function (TEWL), fibrosis, thickening; assay type: in vivo
Protocol: Clinically relevant disruption of skin barrier function results in increased water loss from the skin surface. This can be measured non-invasively by the Transepidermal Water Loss (TEWL) assay. Increasing TEWL values directly correlate with damage to the skin's barrier function.
Groups of mice were irradiated with 35 GY to induce oxidative stress and then treated with JP4-039 or formulation alone 0.5, 24 and 48 hours after exposure. Skin was evaluated 21 days after initial treatment. Damage to skin barrier function was determined by TEWL. Results are reported as % recovery from 35 GY damage defined as (((radiated average−test sample value+0 GY average)/(treated average)*100) (FIG. 18a).
Fibrosis was evaluated histologically by evaluating the extent of collagen infiltration in the skin sections in (FIG. 18b) (100×). Dermal thickness is indicated by the arrows and collagen fibers were identified by Masson's Trichrome staining (blue). Representative H&E stained sections are provided in (FIG. 18c) with arrows showing epidermal thickness (200×). Dermal (FIG. 18d 100×) and epidermal (FIG. 18e) thickness (200×) was quantified at 5 sites within 4 representative histologic images for each mouse using NIH Image J Software. Statistical significance was determined by ANOVA followed by a Bonferroni post test set at p<0.05.

human skin = assay: Living human skin samples, 60 GY irradiation followed by topical JP4-039: oxidative skin damage
Protocol: Oxidative skin damage directly correlates with epidermal thickening, an increase in apoptotic (dying) cells (measured by TUNEL and Caspase release) and an increase in 8-oxoguanine positive cells. Further, oxidative damage is a result of free radical formation that correlates with increases in carbonylated proteins and reduced levels of GSH. […] Living human skin samples were divided and groups of skin samples were treated with either 60 GY irradiation (60 GY), 60 GY followed by topical JP4-039(60 GY+JP4-039), 60 GY followed by formulation without JP4-039(60 GY+Formulation), or were cultured without irradiation (0 GY CONTROL). Photographs in FIG. 10 a) are representative H&E sections (400×). […] In FIG. 10 c) sections were stained with antibody against 8-oxoguanine followed by DAB and counterstained with hemotoxalin. Positive cells have brown nuclei (400×). Epidermal thickness FIG. 10 (d) was determined by photographing 5 consecutive H&E sections (400×) and measuring the length of the epidermis at 5 sites within each photograph. The percentage of TUNEL positive cells FIG. 10 (e) and 8 oxoguanine positive cells FIG. 10 (f) was determined by counting all epidermal cells (positive and negative) in five consecutive 400× sections beginning with the site of maximal apoptosis. Carbonyl Protein FIG. 10 (g), Caspase 3/8 FIG. 10 (h) and GSH FIG. 10 (i) levels were determined in skin homogenates and were normalized by mg protein. Carbonyl protein samples were performed in triplicate from pooled homogenates. All graphical data were converted to % increase from control and are presented as mean+sem. Statistical significance was determined by ANOVA followed by a Bonferroni post test with significance set at p<0.05.

[3] = test system: irradiation induced skin damage; assay: Mouse leg skin irradiated with 6 MeV electron beam, topical F14 emulsion after irradiation: skin damage; assay type: in vivo, C57BL/6NHsd mice
Protocol: Mouse flank was shaved and depilated 24 hrs. prior to irradiation with 35 GY using a 6 MeV electron beam.
JP4-039 was topically applied in a liposome formulation (F14-JP4-039 Emulsion: JP4-039 (2 mg/ml) was emulsified in sesame seed oil (100 mg/ml), and soy phosphatidyl choline (50 mg/ml) by sonication) 30 minutes after irradiation and daily for the next 3 days. Mice were photographed and skin damage scored by clinical criteria. Leg contracture was measured by comparing maximal extension between control and irradiated legs. Histological characterization of cellular infiltrates and collagen levels was performed.
JP4-039 was topically applied in a the above-described liposome formulation 30 minutes after irradiation. Skin samples taken at 4 hours. Analyzed for apoptosis via caspase 3 and TUNEL. Antioxidant functions evaluated by changes in GSH levels. All quantitative data presented as means±sem and significance determined by ANOVA followed by a Bonferoni post test set at p<0.05.
Materials/Methods: The right legs of C57BL/6NHsd mice were shaved and treated with Nair to remove the fur. Twenty four hours later the right legs were irradiated to doses of 30 or 35 Gy using 6 MeV electron beam, bolused to bring the surface dose to 100%. At 30 minutes after irradiation, 24, 48 and 72 hours, F14 emulsion only or F14-JP4-039 (100 μg in 50 μl) was applied to the skin. Photos were taken for visual evidence of skin damage and leg contracture was measured as a functional evaluation of tissue damage. Histological characterization of skin thickening, cellular infiltrates and collagen evaluation was also performed. To evaluate the mechanism of radiation damage mitigation, skin samples were assayed at 4 hours after irradiation for markers of apoptosis and oxidative stress. Results: Skin damage was scored on day 21 after irradiation. […] Assessment of Irradiation Damage: Skin damage was measured using visual evidence seen from photographs of the skin and measuring leg contracture. […]

[4] = living human skin explants, topical
[5] = F14 emulsion applied at 30 min after irradiation

CC(C)C[C@@H](/C=C/CC(=O)NC1CC(C)(C)N([O])C(C)(C)C1)NC(=O)OC(C)(C)C [JP4-039, (S,E)-5-(tert-Butoxycarbonylamino)-7-methyloct-3-enoic Acid-TEMPO]
cutaneous retention [1]: 11.7 ± 3.1 pmol/mg | fibrosis associated changes (epidermal and dermal thickening, collagen deposition) ([2]; day 21): prevents/mitigates | radiation induced TEWL increases ([2]; day 21, p=0.011): significantly reversed | depletion of the antioxidant GSH (human skin; [4]): decreasing | epidermal thickening associated with oxidative skin damage (human skin; [4]): reduction | formation of protein carbonyls (human skin; [4]): reduction | radiation induced cellular apoptosis (human skin; [4]): reduction | oxidative damage of human skin (human skin; living human skin samples, 60 GY followed by topical JP4-039): protects human skin from oxidative damage | caspase 3 activity [3, 5]: decreased | thickening of the skin [3, 5]: decreased | antioxidant function in the skin ([3]; topical 30 minutes after 35 GY, skin taken at 4 hours, GSH levels): potent antioxidant function
